Consider 29 compounds from patent US20080188528A1, “Modulators of C3a receptor and methods of use thereof” (priority 2006, published 2008).

The target of test [1] is T1, human C3a receptor (C3aR) (Homo sapiens, UniProt Q16581).
T1 construct: expressed in transfected cells
T1 sequence (Q16581 1-482): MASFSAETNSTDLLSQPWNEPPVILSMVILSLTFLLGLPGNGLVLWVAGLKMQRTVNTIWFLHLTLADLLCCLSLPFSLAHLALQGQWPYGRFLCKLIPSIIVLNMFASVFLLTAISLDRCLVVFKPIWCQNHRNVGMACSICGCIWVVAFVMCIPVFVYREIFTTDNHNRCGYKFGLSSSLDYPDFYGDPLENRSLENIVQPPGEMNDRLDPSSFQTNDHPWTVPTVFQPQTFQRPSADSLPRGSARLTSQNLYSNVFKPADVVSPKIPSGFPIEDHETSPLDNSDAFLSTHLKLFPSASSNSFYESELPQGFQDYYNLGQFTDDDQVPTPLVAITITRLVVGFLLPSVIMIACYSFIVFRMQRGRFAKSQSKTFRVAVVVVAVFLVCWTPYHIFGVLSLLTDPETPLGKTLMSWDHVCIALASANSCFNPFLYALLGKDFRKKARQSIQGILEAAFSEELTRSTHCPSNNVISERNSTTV
Nature of the test: Inhibition of human [125I]-C3a binding to human C3a receptor (SPA, membranes of HEK293 cells expressing recombinant C3aR). The following applies: 0.1 nM [125I]-C3a, 3 hours at room temperature; Table 6. The method, boiled down: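 HEK293 C3aR membranes were pre-coupled to WGA SPA beads and incubated 3 h at room temperature with 0.1 nM [125I]-C3a in HEPES pH 7.4 buffer containing 0.25% BSA and 0.2% CHAPS, DMSO ≤1%. Nonspecific binding was defined with 1 μM unlabeled C3a. IC50 came from nonlinear least-squares fitting.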

The conditions of test [2]: cited from earlier work.

Counter-ions that a name gives are not always drawn.

For `CC(=N)NCCC[C@H](NC(=O)c1cccn(Cc2cccc(Br)c2)c1=O)C(=O)O` [Compound 109, (2S)-2-({[1-(3-bromobenzyl)-2-oxo-1,2-dihydropyridin-3-yl]carbonyl}amino)-5-(ethanimidoylamino)pentanoic acid•TFA], the IC50 in test [1] fell in the range of 50 to 500 nM.

As to `CC(=N)NCCC[C@H](NC(=O)c1cccn(Cc2ccc(Br)cc2)c1=O)C(=O)O` [Compound 110, (2S)-2-({[1-(4-bromobenzyl)-2-oxo-1,2-dihydropyridin-3-yl]carbonyl}amino)-5-(ethanimidoylamino)pentanoic acid•TFA], the 50% inhibitory concentration (IC50) in test [1] lay in the range of 50 to 500 nM. Consider `N=C(N)NC(=O)CC[C@H](NC(=O)c1ccc(C(c2ccccc2)c2ccccc2)cc1)C(=O)O` [Compound 111, (2S)-5-Carbamimidamido-2-({[4-(diphenylmethyl)phenyl]carbonyl}amino)-5-oxopentanoic acid], for which, in test [1], the IC50 is less than 50 nM. The same measure, in the same setting: as for `CC(=N)NCCC[C@H](NC(=O)c1cccc(C(c2ccccc2)c2ccccc2)c1)C(=O)O` [Compound 112, (2S)-2-({[3-(Diphenylmethyl)phenyl]carbonyl}amino)-5-(ethanimidoylamino)pentanoic acid], the figure is 50 to 500 nM; as for `CC(=N)NCCC[C@H](NC(=O)c1cccn(Cc2ccc(C(F)(F)F)cc2)c1=O)C(=O)O` [Compound 113, (2S)-5-(ethanimidoylamino)-2-[({2-oxo-1-[4-(trifluoromethyl)benzyl]-1,2-dihydropyridin-3-yl}carbonyl)amino]pentanoic acid•TFA], 500 to 20000 nM; as for `CC(=N)NCCC[C@H](NC(=O)c1cccn(Cc2cccc(I)c2)c1=O)C(=O)O` [Compound 114, (2S)-5-(ethanimidoylamino)-2-({[1-(3-iodobenzyl)-2-oxo-1,2-dihydropyridin-3-yl]carbonyl}amino)pentanoic acid•TFA], 50 to 500 nM. Same read-out and setting: to `CC(=N)NCCC[C@H](NC(=O)c1cccn(Cc2cc(Br)cc(Br)c2)c1=O)C(=O)O` [Compound 115, (2S)-2-({[1-(3,5-dibromobenzyl)-2-oxo-1,2-dihydropyridin-3-yl]carbonyl}amino)-5-(ethanimidoylamino)pentanoic acid•TFA] belongs less than 50 nM; to `CC(=N)NCCC[C@H](NC(=O)c1cccn(Cc2cc(Cl)cc(Cl)c2)c1=O)C(=O)O` [Compound 116, (2S)-2-({[1-(3,5-dichlorobenzyl)-2-oxo-1,2-dihydropyridin-3-yl]carbonyl}amino)-5-(ethanimidoylamino)pentanoic acid•TFA], less than 50 nM; to `CC(=N)NCCC[C@H](NC(=O)c1cccn(Cc2cc(F)cc(F)c2)c1=O)C(=O)O` [Compound 117, (2S)-2-({[1-(3,5-difluorobenzyl)-2-oxo-1,2-dihydropyridin-3-yl]carbonyl}amino)-5-(ethanimidoylamino)pentanoic acid•TFA], 50 to 500 nM.

Take `CCCC(=N)NCCC[C@H](NC(=O)c1ccc(C(c2ccccc2)c2ccccc2)s1)C(=O)O` [Compound 118, (2S)-5-(butanimidoylamino)-2-({[5-(diphenylmethyl)thiophen-2-yl]carbonyl}amino)pentanoic acid•TFA]: in test [1], the IC50 fell in the range of 500 to 20000 nM. On the same count and under the same terms, as for `N=C(NCCC[C@H](NC(=O)c1ccc(C(c2ccccc2)c2ccccc2)s1)C(=O)O)c1ccccn1` [Compound 119, (2S)-2-({[5-(diphenylmethyl)thiophen-2-yl]carbonyl}amino)-5-{[imino(pyridin-2-yl)methyl]amino}pentanoic acid•TFA], the figure is 500 to 20000 nM; as for `N=C(NCCC[C@H](NC(=O)c1ccc(C(c2ccccc2)c2ccccc2)s1)C(=O)O)c1ccccc1` [Compound 120, (2S)-2-({[5-(diphenylmethyl)thiophen-2-yl]carbonyl}amino)-5-{[imino(phenyl)methyl]amino}pentanoic acid•TFA], 500 to 20000 nM; as for `N=C(NCCC[C@H](NC(=O)c1ccc(C(c2ccccc2)c2ccccc2)s1)C(=O)O)C1CC1` [Compound 121, (2S)-5-{[cyclopropyl(imino)methyl]amino}-2-({[5-(diphenylmethyl)thiophen-2-yl]carbonyl}amino)pentanoic acid•TFA], 500 to 20000 nM. `COc1ccn(C(c2ccccc2)c2ccccc2)c(=O)c1C(=O)N[C@@H](CCCNC(C)=N)C(=O)O` [Compound 122, (2S)-2-({[1-(diphenylmethyl)-4-methoxy-2-oxo-1,2-dihydropyridin-3-yl]carbonyl}amino)-5-(ethanimidoylamino)pentanoic acid•TFA]: the IC50 in test [1] lay in the range of 500 to 20000 nM. The same measure, in the same setting: to `CCOC(=O)CC(=N)NCCC[C@H](NC(=O)c1ccc(C(c2ccccc2)c2ccccc2)s1)C(=O)O` [Compound 123, (2S)-2-({[5-(diphenylmethyl)thiophen-2-yl]carbonyl}amino)-5-[(3-ethoxy-3-oxopropanimidoyl)amino]pentanoic acid•TFA] belongs 500 to 20000 nM.

As for `CC(=N)NCCC[C@H](NC(=O)c1ccc(C(c2ccc(C)cc2)c2ccc(C)cc2)s1)C(=O)O` [Compound 124, (2S)-2-[({5-[bis(4-methylphenyl)methyl]thiophen-2-yl}carbonyl)amino]-5-(ethanimidoylamino)pentanoic acid•TFA], in test [1], the IC50 was 500 to 20000 nM. Consider `CC(=N)NCCC[C@H](NC(=O)c1ccc(C(c2ccc(Cl)cc2)c2ccc(Cl)cc2)s1)C(=O)O` [Compound 125, (2S)-2-[({5-[bis(4-chlorophenyl)methyl]thiophen-2-yl}carbonyl)amino]-5-(ethanimidoylamino)pentanoic acid•TFA], for which the half-maximal inhibitory concentration (IC50) in test [1] is 50 to 500 nM. Take `CC(=N)NCCC[C@H](NC(=O)c1ccc(C(c2ccccc2Cl)c2ccccc2Cl)s1)C(=O)O` [Compound 126, (2S)-2-[({5-[bis(2-chlorophenyl)methyl]thiophen-2-yl}carbonyl)amino]-5-(ethanimidoylamino)pentanoic acid•TFA]: the IC50 in test [1] was 500 to 20000 nM. Still for that read-out and setting: to `CC(=N)NCCC[C@H](NC(=O)c1ccc(C(c2cccs2)c2cccs2)s1)C(=O)O` [Compound 127] belongs 50 to 500 nM.

Take `CC(=N)NCCC[C@H](NC(=O)c1ccc(C(c2ccc(F)cc2)c2ccc(F)cc2)s1)C(=O)O` [Compound 128, (2S)-2-[({5-[bis(4-fluorophenyl)methyl]thiophen-2-yl}carbonyl)amino]-5-(ethanimidoylamino)pentanoic acid•TFA]: the IC50 in test [1] was 50 to 500 nM. Turning to `CC(=N)NCCC[C@H](NC(=O)c1ccc(C(c2cccc(F)c2)c2cccc(F)c2)s1)C(=O)O` [Compound 129, (2S)-2-[({5-[bis(3-fluorophenyl)methyl]thiophen-2-yl}carbonyl)amino]-5-(ethanimidoylamino)pentanoic acid•TFA], the concentration for half-maximal inhibition (IC50) in test [1] fell in the range of 50 to 500 nM.

For the compound `CC(=N)NCCC[C@H](NC(=O)c1ccc(C(c2cccc(C(F)(F)F)c2)c2cccc(C(F)(F)F)c2)s1)C(=O)O` [Compound 130, (2S)-2-{[(5-{Bis[3-(trifluoromethyl)phenyl]methyl}thiophen-2-yl)carbonyl]amino}-5-(ethanimidoylamino)pentanoic acid], the IC50 in test [1] lay within 500 to 20000 nM. Still for that read-out and setting: as for `CC(=N)NCCC[C@H](NC(=O)c1ccc(C(c2cccc(Cl)c2)c2cccc(Cl)c2)s1)C(=O)O` [Compound 131, (2S)-2-[({5-[bis(3-chlorophenyl)methyl]thiophen-2-yl}carbonyl)amino]-5-(ethanimidoylamino)pentanoic acid•TFA], the figure is less than 50 nM; as for `CC(C)C(=N)NCCC[C@H](NC(=O)c1ccc(C(c2ccccc2)c2ccccc2)s1)C(=O)O` [Compound 132, (2S)-2-({[5-(diphenylmethyl)thiophen-2-yl]carbonyl}amino)-5-[(2-methylpropanimidoyl)amino]pentanoic acid•TFA], 500 to 20000 nM. Same read-out and setting: as for `N=CNCCC[C@H](NC(=O)c1ccc(C(c2ccccc2)c2ccccc2)s1)C(=O)O` [Compound 133, (2S)-2-({[5-(diphenylmethyl)thiophen-2-yl]carbonyl}amino)-5-[(iminomethyl)amino]pentanoic acid•TFA], the figure is 50 to 500 nM. Same read-out and setting: to `CC(=N)Nc1cccc([C@H](NC(=O)c2ccc(C(c3ccccc3)c3ccccc3)s2)C(=O)O)c1` [Compound 134, (2S)-({[5-(Diphenylmethyl)thiophen-2-yl]carbonyl}amino)[3-(ethanimidoylamino)phenyl]ethanoicacid] belongs 500 to 20000 nM; to `CC(=N)Nc1ccc([C@H](NC(=O)c2ccc(C(c3ccccc3)c3ccccc3)s2)C(=O)O)cc1` [Compound 135, (2S)-({[5-(Diphenylmethyl)thiophen-2-yl]carbonyl}amino)[4-(ethanimidoylamino)phenyl]ethanoicacid], 500 to 20000 nM. Turning to `C/C(=N\O)NCCC[C@H](NC(=O)c1ccc(C(c2ccccc2)c2ccccc2)s1)C(=O)O` [Compound 136, (2S)-2-({[5-(diphenylmethyl)thiophen-2-yl]carbonyl}amino)-5-{[1-(hydroxyamino)ethylidene]amino}pentanoic acid•TFA], in test [1], the IC50 was in the range of 50 to 500 nM.

On to `NC(N)=NCCC[C@H](NC(=O)COCC(c1ccccc1)c1ccccc1)C(=O)O` [SB-290157], for which the airway inflammation entry in test [2] (asthma model) is recorded as “reduction of airway inflammation”. Further, in test [2] (in vivo), the neutrophil recruitment entry was “inhibition of neutrophil recruitment” and the paw edema result is recorded as “decreased paw edema”.
